The values below come from BindingDB's records for doi:10.1021/jm00024a005 (National Institute of Diabetes and Digestive and Kidney …, 1996).

The structures appear in SMILES notation. Several values for one entry are separate records, joined by “and”; a condition that tells them apart may be missing. Equal entries are not always repeated.

This test in a line: Ability to inhibit [3H](+)-pentazocine binding to guinea pig brain Sigma receptor type 1.

With `CN1CCC2(c3cccc(O)c3)CC(=O)C(=Cc3ccc4ccccc4c3)C1C2` (stereo not given) [5-(3-Hydroxy-phenyl)-2-methyl-8-[1-naphthalen-2-yl-meth-(E)-ylidene]-2-aza-bicyclo[3.3.1]nonan-7-one], the Ki (commonly a measure of affinity in units of concentration, obtained from inhibition or displacement) is 16.6 nM.

`CN1CCC2(c3cccc(O)c3)CC(=O)C(=Cc3cccc(I)c3)C1C2` (stereo not given) [5-(3-Hydroxy-phenyl)-8-[1-(3-iodo-phenyl)-meth-(E)-ylidene]-2-methyl-2-aza-bicyclo[3.3.1]nonan-7-one] showed a Ki of 1.62 nM.

`CN1CCC2(c3cccc(O)c3)CC(=O)C(=Cc3ccc(I)cc3)C1C2` (stereo not given) [5-(3-Hydroxy-phenyl)-8-[1-(4-iodo-phenyl)-meth-(E)-ylidene]-2-methyl-2-aza-bicyclo[3.3.1]nonan-7-one]: the affinity, expressed as Ki, was 1.71 nM.

Take `COc1ccc(C=C2C(=O)CC3(c4cccc(O)c4)CCN(C)C2C3)cc1` (stereo not given) [5-(3-Hydroxy-phenyl)-8-[1-(4-methoxy-phenyl)-meth-(E)-ylidene]-2-methyl-2-aza-bicyclo[3.3.1]nonan-7-one]: the Ki was 1.9 nM and 7.8 nM.

`CN1CCC2(c3cccc(O)c3)CC(=O)C(=CC3CC3)C1C2` (stereo not given) [8-[1-Cyclopropyl-meth-(E)-ylidene]-5-(3-hydroxy-phenyl)-2-methyl-2-aza-bicyclo[3.3.1]nonan-7-one] showed a Ki of 62.3 nM.
